According to ChEMBL document CHEMBL5653603 (J Am Chem Soc, 2010):
Active and inactive are the calls of the source. The rule behind the calls is not given here.

Columns and labels:
Histone deacetylase 1 = Histone deacetylase 1 (Homo sapiens, UniProt Q13547); test: Inhibition of recombinant human HDAC1 using fluorogenic RHKKAc peptide as substrate by fluorescence assay; type: single protein
Homo sapiens = species: Homo sapiens; test: Selectivity ratio of IC50 for recombinant human HDAC1 to IC50 for recombinant human HDAC6
[1] = biological target: T1, Protein deacetylase HDAC6 (Homo sapiens, UniProt Q9UBN7); test: Inhibition of recombinant human HDAC6 using fluorogenic RHKKAc peptide as substrate by fluorescence assay
T1 sequence (Q9UBN7 whole entry): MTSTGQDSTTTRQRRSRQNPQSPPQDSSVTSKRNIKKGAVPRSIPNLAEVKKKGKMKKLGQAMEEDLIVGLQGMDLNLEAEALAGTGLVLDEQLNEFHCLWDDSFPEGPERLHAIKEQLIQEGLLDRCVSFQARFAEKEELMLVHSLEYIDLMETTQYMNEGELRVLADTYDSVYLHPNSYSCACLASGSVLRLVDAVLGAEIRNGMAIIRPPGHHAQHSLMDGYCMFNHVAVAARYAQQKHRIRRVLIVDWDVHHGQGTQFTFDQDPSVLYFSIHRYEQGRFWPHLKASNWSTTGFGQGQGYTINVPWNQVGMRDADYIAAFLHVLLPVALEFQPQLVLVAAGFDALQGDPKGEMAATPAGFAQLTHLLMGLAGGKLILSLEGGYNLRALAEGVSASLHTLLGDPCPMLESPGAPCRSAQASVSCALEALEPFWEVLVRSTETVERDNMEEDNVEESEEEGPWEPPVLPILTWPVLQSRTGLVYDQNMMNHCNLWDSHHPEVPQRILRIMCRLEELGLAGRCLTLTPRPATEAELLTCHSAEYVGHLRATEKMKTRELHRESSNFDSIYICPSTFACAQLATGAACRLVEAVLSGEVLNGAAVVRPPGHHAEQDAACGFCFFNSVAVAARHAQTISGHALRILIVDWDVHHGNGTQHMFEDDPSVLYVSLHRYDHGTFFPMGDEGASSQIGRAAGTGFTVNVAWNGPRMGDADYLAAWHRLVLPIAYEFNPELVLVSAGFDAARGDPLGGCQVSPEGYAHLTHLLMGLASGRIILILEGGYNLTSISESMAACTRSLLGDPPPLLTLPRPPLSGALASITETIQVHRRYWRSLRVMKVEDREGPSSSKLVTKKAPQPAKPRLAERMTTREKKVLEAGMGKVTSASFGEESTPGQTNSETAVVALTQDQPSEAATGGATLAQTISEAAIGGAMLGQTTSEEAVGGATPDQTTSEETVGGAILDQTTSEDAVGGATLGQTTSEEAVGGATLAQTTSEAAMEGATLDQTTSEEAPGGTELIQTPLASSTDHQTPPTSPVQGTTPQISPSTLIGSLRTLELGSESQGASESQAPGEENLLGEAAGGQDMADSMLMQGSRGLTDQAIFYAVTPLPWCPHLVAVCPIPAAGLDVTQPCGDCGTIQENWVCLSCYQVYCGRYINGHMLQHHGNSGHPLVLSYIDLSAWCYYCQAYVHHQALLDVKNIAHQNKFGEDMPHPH

[2] = Neurotoxicity against Sprague-Dawley rat primary cortical neurons assessed as reduction in neuron survival at 1 to 10 uM measured after 24 hrs by MTT assay; type: toxicity, cell-based; conditions: cortical neurone, dose 1-10 µM
Cortical neurone [3] = test: Neuroprotective activity against HCA-induced Sprague-Dawley rat primary cortical neuron death assessed as increase in neuron survival at 0.5 uM measured after 24 hrs by MTT assay; type: functional, cell-based
Primary cortical neuron = test: Inhibition of HDAC6 in Sprague-Dawley rat primary cortical neurons assessed as induction of alpha-tubulin hyperacetylation at 2.5 uM measured after 30 mins by Western blot analysis; type: cell-based
Cortical neurone [4] = test: Neuroprotective activity against HCA-induced Sprague-Dawley rat primary cortical neuron death assessed as increase in neuron survival measured after 24 hrs by MTT assay; type: functional, cell-based; conditions: dose 1-10 µM
[5] = Inhibition of class 1 HDAC in Sprague-Dawley rat primary cortical neurons assessed as induction of histone hyperacetylation at 10 uM measured after 30 mins by Western blot analysis; type: cell-based; conditions: primary cortical neuron, 0.5 h

Histone deacetylase 1, sequence (Q13547 whole entry): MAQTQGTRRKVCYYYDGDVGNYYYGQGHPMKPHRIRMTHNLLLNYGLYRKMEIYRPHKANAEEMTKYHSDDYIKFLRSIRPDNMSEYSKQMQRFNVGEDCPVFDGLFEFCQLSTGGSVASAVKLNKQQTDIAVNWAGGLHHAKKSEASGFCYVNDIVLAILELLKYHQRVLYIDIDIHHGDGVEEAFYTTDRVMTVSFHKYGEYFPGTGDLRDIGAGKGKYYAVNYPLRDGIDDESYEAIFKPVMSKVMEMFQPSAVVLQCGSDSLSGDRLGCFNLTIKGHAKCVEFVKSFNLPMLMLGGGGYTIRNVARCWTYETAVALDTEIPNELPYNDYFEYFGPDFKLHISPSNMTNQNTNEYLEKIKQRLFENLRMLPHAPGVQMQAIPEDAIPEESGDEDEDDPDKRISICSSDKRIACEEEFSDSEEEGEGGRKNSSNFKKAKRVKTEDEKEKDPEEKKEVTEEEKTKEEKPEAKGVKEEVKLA

Row | Structure (SMILES) | IC50 (Histone deacetylase 1) | IC50 [1] | further results
1 | O=C(CCn1c2ccccc2c2ccccc21)NO | > 30 µM | – | –
2 | O=C(CCCCCn1c2ccccc2c2ccccc21)NO | 14 µM | 0.062 µM | Ratio IC50 (Homo sapiens): 226
3 | O=C(CCCCCn1c2c(c3ccccc31)CCCC2)NO | 8.6 µM | 0.09 µM | –
4 | CC(/C=C/C(=O)NO)=C\[C@@H](C)C(=O)c1ccc(N(C)C)cc1 [TRICHOSTATIN] | – | – | Activity [2]: Toxic; Activity (Cortical neurone [3]): Active
5 | O=C(NO)c1ccc(Cn2c3ccccc3c3ccccc32)cc1 | 10.9 µM | – | Ratio IC50 (Homo sapiens): 574
6 | O=C(NO)n1c2ccccc2c2ccccc21 | > 30 µM | > 30 µM | –
7 | CN1CCc2c(n(Cc3ccc(C(=O)NO)cc3)c3ccccc23)C1 | 5.18 µM | 0.001 µM | Ratio IC50 (Homo sapiens): 3700
8 | O=C(Cc1ccc(Cn2c3ccccc3c3ccccc32)cc1)NO | > 30 µM | 0.301 µM | –
9 | O=C(CCCCCCC(=O)Nc1ccc([C@H]2O[C@@H](CSc3nc(-c4ccccc4)c(-c4ccccc4)o3)C[C@@H](c3ccc(CO)cc3)O2)cc1)NO | – | – | inhibition (Primary cortical neuron): Active
10 | O=C(NO)c1ccc(CCn2c3ccccc3c3ccccc32)cc1 | > 30 µM | 0.18 µM | –
11 | CN1CCc2c(c3ccccc3n2Cc2ccc(C(=O)NO)cc2)C1.O=C(O)C(F)(F)F | – | – | inhibition (Primary cortical neuron): Active; Activity [2]: Non-Toxic; Activity (Cortical neurone [4]): Dose-Dependent Effect; inhibition (INH) [5]: Active
12 | CN1CCc2c(c3ccccc3n2CCCCCC(=O)NO)C1 | 25.2 µM | 0.213 µM | –
13 | CN1CCc2c(n(CCCCCC(=O)NO)c3ccccc23)C1 | > 30 µM | 0.55 µM | –
